# In patent publication US8507485B2, “Cyclic compound having pyrimidinylalkylthio group” (Santen Pharmaceutical Co., Ltd., priority 2005, dated 2013):
# Tested on: HUVEC (human umbilical vein endothelial cells), VEGF-induced proliferation
# Test: Cell proliferation inhibitory action test using a VEGF-induced HUVEC proliferation reaction evaluation system
# Assay type: cell-based
# Settings: 20 μg/mL test compound solution, 5 μL per well, WST-8 three days after VEGF addition, absorbance at 450 nm, control 1.0% DMSO
# Protocol: In order to find the usefulness of the compound of the present invention, a test for inhibitory effects of the compound of the present invention on cell proliferation was carried out using a VEGF-induced HUVEC proliferation reaction evaluation system (HUVEC: human umbilical vein endothelial cells), which is a method of evaluating antiangiogenic effects of drugs, and the antiangiogenic effects of the compounds were evaluated.
# As one of the widely used methods of evaluating antiangiogenic effects of drugs, a cell proliferation inhibitory action test using a VEGF-induced HUVEC proliferation reaction evaluation system has been reported in Cancer Res., 59, 99-106 (1999). According to the method described in the above-mentioned document, a cell proliferation inhibitory action test of the compound of the present invention was carried out, and the cell proliferation inhibition rate was calculated. Then, the antiangiogenic effect of each of the compound of the present invention was evaluated using the obtained rate as an index.
# (Preparation of Test Compound Solution)
# Each test compound was dissolved in dimethyl sulfoxide (hereinafter abbreviated as DMSO), and the obtained solution was diluted with a commercially available phosphate buffer solution (hereinafter abbreviated as PBS), whereby a 20 μg/mL test compound solution was prepared.
# (Preparation of HUVEC Suspension)
# HUVEC was suspended in F12K medium containing 0.5% fetal bovine serum (hereinafter abbreviated as FBS), whereby a 2×10^4 cells/mL HUVEC suspension was prepared.
# (Preparation of VEGF Solution)
# VEGF was dissolved in PBS containing 0.1% bovine serum albumin, and the obtained solution was diluted with F12K medium containing 0.5% FBS, whereby a 400 ng/mL VEGF solution was prepared.
# (Test Method and Measurement Method)
# 1) The HUVEC suspension was inoculated in an amount of 100 μL into each well of a 96-well plate coated with type I collagen (2×10^3 cells per well).
# 2) One day after the inoculation, the test compound solution was added in an amount of 5 μL per well.
# 3) One hour after the addition of the test compound solution, the VEGF solution was added in an amount of 5 μL per well.
# 4) Three days after the addition of the VEGF solution, WST-8 assay reagent (Dojin Chemical Co., Ltd.) was added in an amount of 10 μL per well.
# 5) After 3 hours, the above-mentioned plate was attached to an absorptiometer (Multilabel Counter ARVO), and an absorbance at 450 nm of suspension in each well (hereinafter referred to as a test compound suspension) was measured.
# 6) A test was carried out in the same manner as in the above 1) to 5) except that 1.0% DMSO was used instead of the test compound solution. The result was used as a control.
# Incubation was carried out under conditions of 37° C., 5% carbon dioxide and […] in an incubator throughout the above-mentioned test steps.
# (Calculation of Cell Proliferation Inhibition Rate)
# The cell proliferation inhibition rate (%), which was used as an index of an antiangiogenic effect, was calculated using the following calculation equation. Cell proliferation inhibition rate (%)=100−{(Absorbance of test compound suspension−A)/(absorbance of control−A)}×100 (Calculation Equation) A: Absorbance of only cell suspension (cells+medium) (Test Results and Discussion)
row,Structure (SMILES),Cell proliferation inhibition rate (%)
1,"O=C(Nc1cccc(C(F)(F)F)c1)c1cccnc1SCc1ccnc(N2CCNCC2)n1 [Compound 4-36, 2-[2-(piperazin-1-yl)pyrimidin-4-ylmethylthio]-N-(3-trifluorophenyl)pyridine-3-carboxamide]",100
2,"Cc1cc(C)cc(NC(=O)c2sccc2SCc2ccnc(N)n2)c1 [Compound 1-20, 3-(2-Aminopyrimidin-4-ylmethylthio)-N-(3,5-dimethylphenyl) thiophene-2-carboxamide]",100

# Same assay, conditions: Homo sapiens, 72 h, 20 μg/mL test compound solution, 5 μL per well, WST-8 three days after VEGF addition, absorbance at 450 nm, control 1.0% DMSO, read-out: Cell proliferation inhibition rate (%)
row,Structure (SMILES),inhibition at 20 µg/mL (stock) [%]
1,"CC(=O)Nc1nccc(CSc2ncccc2C(=O)Nc2ccc3c(c2)CCC3)n1 [Compound 2-4, 2-(2-Acetylaminopyrimidin-4-ylmethylthio)-N-(indan-5-yl)pyridine-3-carboxamide]",99
2,"CSc1nccc(CSc2ncccc2C(=O)Nc2cc(C)cc(C)c2)n1 [Compound 1-26, N-(3,5-Dimethylphenyl)-2-(2-methylthiopyrimidin-4-ylmethylthio)pyridine-3-carboxamide]",100
3,"Cc1cc(C)cc(NC(=O)c2cccnc2SCc2ccncn2)c1 [Compound 1-22, N-(3,5-Dimethylphenyl)-2-(pyrimidin-4-ylmethylthio)pyridine-3-carboxamide]",100
4,"Cc1cc(C)cc(NC(=O)c2cccnc2SCc2ccnc(NCCO)n2)c1 [Compound 4-19, N-(3,5-Dimethylphenyl)-2-[2-(2-hydroxyethyl)aminopyrimidin-4-ylmethylthio]pyridine-3-carboxamide]",100
5,"CNc1nccc(CSc2ncccc2C(=O)Nc2cc(C)cc(C)c2)n1 [Compound 1-33, N-(3,5-Dimethylphenyl)-2-(2-methylaminopyrimidin-4-ylmethylthio)pyridine-3-carboxamide]",100
6,"Cc1cc(C)cc(NC(=O)c2cccnc2SCc2ccnc(N3CCOCC3)n2)c1 [Compound 4-4, N-(3,5-Dimethylphenyl)-2-(2-morpholinopyrimidin-4-ylmethylthio)pyridine-3-carboxamide]",100
7,"CC(=O)Nc1nccc(CSc2ncccc2C(=O)Nc2cc(C)cc(C)c2)n1 [Compound 2-1, 2-(2-Acetylaminopyrimidin-4-ylmethylthio)-N-(3,5-dimethylphenyl)pyridine-3-carboxamide]",100
8,"CCOCCNc1nccc(CSc2ncccc2C(=O)Nc2ccc(OC(F)(F)F)cc2)n1 [Compound 4-22, 2-[2-(2-Ethoxyethyl)aminopyrimidin-4-ylmethylthio]-N-(4-trifluoromethoxyphenyl)pyridine-3-carboxamide]",100
9,"Cc1cc(C)cc(NC(=O)c2cccnc2SCc2ccnc(N3CCN(CCO)CC3)n2)c1 [Compound 4-25, N-(3,5-Dimethylphenyl)-2-[2-(4-(2-hydroxyethyl)piperazin-1-yl)pyrimidin-4-ylmethylthio]pyridine-3-carboxamide]",100
10,"Cc1cc(C)cc(NC(=O)c2cccnc2SCc2ccnc(N)n2)c1 [Compound 1-1, 2-(2-Aminopyrimidin-4-ylmethylthio)-N-(3,5-dimethylphenyl)pyridine-3-carboxamide]",96
11,"CC(=O)Nc1nccc(CSc2ncccc2C(=O)Nc2ccc(Cl)cc2)n1 [Compound 2-2, 2-(2-Acetylaminopyrimidin-4-ylmethylthio)-N-(4-chlorophenyl)pyridine-3-carboxamide]",97
12,"Cc1cc(C)cc(NC(=O)c2cccnc2SCc2ccnc(NC3CC3)n2)c1 [Compound 4-1, 2-(2-Cyclopropylaminopyrimidin-4-ylmethylthio)-N-(3,5-dimethylphenyl)pyridine-3-carboxamide]",100
13,"CC(C)c1cccc(NC(=O)c2cccnc2SCc2ccnc(N)n2)c1 [Compound 1-7, 2-(2-Aminopyrimidin-4-ylmethylthio)-N-(3-isopropylphenyl)pyridine-3-carboxamide]",96
14,"O=C(Nc1cccc(C(F)(F)F)c1)c1cccnc1SCc1ccnc(NC2CC2)n1 [Compound 4-9, 2-(2-Cyclopropylaminopyrimidin-4-ylmethylthio)-N-(3-trifluoromethylphenyl)pyridine-3-carboxamide]",100
15,"Cc1cc(C)cc(NC(=O)c2ccccc2SCc2ccnc(N)n2)c1 [Compound 1-16, 2-(2-Aminopyrimidin-4-ylmethylthio)-N-(3,5-dimethylphenyl)benzamide]",100
16,"CC(=O)N(C(C)=O)c1nccc(CSc2ncccc2C(=O)Nc2cc(C)cc(C)c2)n1 [Compound 3-1, 2-(2-Diacetylaminopyrimidin-4-ylmethylthio)-N-(3,5-dimethylphenyl)pyridine-3-carboxamide]",100
17,"Nc1nccc(CSc2ncccc2C(=O)Nc2cc3ccccc3cn2)n1 [Compound 1-12, 2-(2-Aminopyrimidin-4-ylmethylthio)-N-(isoquinolin-3-yl)pyridine-3-carboxamide]",84
18,"O=C(Nc1ccc(OC(F)(F)F)cc1)c1cccnc1SCc1ccnc(NC2CC2)n1 [Compound 4-6, 2-(2-Cyclopropylaminopyrimidin-4-ylmethylthio)-N-(4-trifluoromethoxyphenyl)pyridine-3-carboxamide]",100
